Data from patent US5209930A, “Preparation and use of N-iodopropargyl oxycarbonyl amino acid esters and derivatives as antimicrobial agents” (Rohm and Haas Company, priority 1990, dated 1993).
Converted amounts (≈) assume the structure as drawn.

Assays:
Assay in all cases: MIC, broth two-fold serial dilution test
[1] = tested on: Pseudomonas aerugenosa (PSAE); format: cell-based, gram negative, ATCC 15442; settings: Pseudomonas aeruginosa (G-); M9G (minimal salts media with glucose); read-out: minimum inhibitory concentration (MIC), PSAE
Experimental: (§1) Biocidal evaluations (bactericidal, algicidal, and fungicidal) were carried out.
(§2) A minimum inhibitory concentration (MIC) value is obtained using a broth, two-fold serial dilution test performed as follows: A stock solution or dispersion of the test compound, typically at a concentration of 1%, is made in a 5:3:2 solvent solution of acetone, methanol, and water. A volume of the stock solution is dispensed into culture media to give an initial starting test concentration of 500 ppm compound.
(§3) When the test is ready to be done, each vessel in the dilution series, except the first vessel, contains an equal volume of compound free broth. The first vessel contains twice the volume of broth with the starting concentration of test compound. One half of the broth from the first vessel is transferred to the second vessel. After being mixed, one half the resulting volume is removed from the second vessel and transferred to the third vessel. The entire cycle is repeated sufficiently to give a series of concentrations amounting to 500, 250, 125, 63, 31, 16, 8, and 4 ppm (or 100, 50, 25, 12.5, 6.2, 3.1, 1.6, and 0.8), respectively.
(§4) Each vessel is then inoculated with a cell suspension of the appropriate test organism. Bacteria are grown in broth, fungi on agar slants for a time and at a temperature appropriate to the species being tested, and algae are a mixture of green algae and blue-green bacteria grown in a nutrient media. At the end of the growth period, in the case of bacteria, the broth is vortexed to disperse the cells.
(§5) The vessels are then incubated at the appropriate temperature. After the incubation, the vessels are examined for growth/no growth. The minimum inhibitory concentration (MIC) is defined as the lowest concentration of compound that results in complete inhibition of growth of the test organism.
Pseudomonas aerugenosa (PSAE), gram negative
(§6) These compounds were tested in M9G
(§7) (minimal salts media with glucose)
1. Pseudomonas aeruginosa (-)

[2] = tested on: Staphylococcus aureus (SAUR); format: cell-based, gram positive, ATCC 6538; settings: Staphylococcus aureus (G+); M9G (minimal salts media with glucose); read-out: minimum inhibitory concentration (MIC), SAUR
Experimental: as §1, §2, §3, §4, §5
Staphylococcus aureus (SAUR), gram positive
as §6, §7
2. Staphylococcus aureus (+)

Escherichia coli (ECOL) = format: cell-based, gram negative, ATCC 11229; settings: Escherichia coli (G-); M9G (minimal salts media with glucose); read-out: minimum inhibitory concentration (MIC), ECOL
Experimental: as §1, §2, §3, §4, §5
Escherichia coli (ECOL), gram negative
as §6, §7

Aspergillus niger (ANIG) = format: cell-based, ATCC 6275; settings: Aspergillus niger (F); M9G (minimal salts media with glucose); read-out: minimum inhibitory concentration (MIC), ANIG
Experimental: as §1, §2, §3, §4
(§8) In the case of fungi, the spores are harvested by pipetting water onto the slant and dislodging the spores with a sterile loop. The cell/spore suspension is standardized by controlling incubation time, temperature, and the volume of the diluent. The suspension is then used to inoculate the vessels containing the broth compound.
as §5, §6, §7

[3] = tested on: Aureobasidium pullulans (APUL); format: cell-based, ATCC 9348; settings: Aureobasidium pullulans (F); M9G (minimal salts media with glucose); read-out: minimum inhibitory concentration (MIC), APUL
Experimental: as §1, §2, §3, §4, §8, §5
Aureobasidium pullulans (APUL)
as §6, §7
6. Aureobasidium pullulans

[4] = tested on: Pseudomonas fluorescens (PSFL); format: cell-based, gram negative, ATCC 948; settings: Pseudomonas fluorescens (G-); M9G (minimal salts media with glucose); read-out: minimum inhibitory concentration (MIC), PSFL
Experimental: as §1, §2, §3, §4, §5
Pseudomonas fluorescens (PSFL), gram negative
as §6, §7
4. Pseudomonas fluorescens (-)

ALGAE = format: cell-based, mixture of green algae and blue-green bacteria; settings: green algae and blue-green bacteria; culture in Allen's medium; read-out: minimum inhibitory concentration (MIC), ALGAE
Experimental: as §1, §2, §3
Each vessel is then inoculated with a cell suspension of the appropriate test organism. […]

Row | SMILES | MIC [1] [µg/mL] | MIC [2] [µg/mL] | MIC (Escherichia coli (ECOL)) [µg/mL] | MIC (Aspergillus niger (ANIG)) [µg/mL] | MIC [3] [µg/mL] | MIC [4] [µg/mL] | MIC (ALGAE) [µg/mL]
1 | O=C(N[C@@H](Cc1ccccc1)C(=O)O)OCC#CI [Compound 8, N-iodopropargyloxycarbonyl phenylalanine] | 250 | 125 | < 4 | 250 | 250 | 63 | –
2 | COC(=O)[C@H](C)NC(=O)OCC#CI [Compound 6, N-iodopropargyloxycarbonyl alanine methyl ester] | 32 | 16 | < 4 | < 4 | < 4 | < 4 | –
3 | CCCCCCCCOC(=O)[C@H](C)NC(=O)OCC#CI [Compound 7, N-iodopropargyloxycarbonyl alanine n-octyl ester] | 125 | 63 | < 4 | < 4 | < 63 | 8 | –
4 | CCCCCCCCOC(=O)[C@H](Cc1ccccc1)NC(=O)OCC#CI [Compound 10, N-iodopropargyloxycarbonyl phenylalanine n-octyl ester] | 63 | 32 | < 4 | 125 | 125 | 32 | –
5 | COC(=O)[C@H](Cc1ccccc1)NC(=O)OCC#CI [Compound 9, N-iodopropargyloxycarbonyl phenylalanine methyl ester] | > 500 | 125 | > 500 | < 4 | < 4 | 125 | –
6 | O=C(O)CNC(=O)OCC#CI [Compound 1, N-iodopropargyloxycarbonyl glycine] | > 500 | 250 | 250 | > 500 | > 500 | 250 | –
7 | CCCCCCCCOC(=O)CNC(=O)OCC#CI [Compound 3, N-Iodopropargyloxycarbonyl glycine n-octyl ester] | > 500 | 8 | > 500 | < 4 | < 4 | 8 | –
8 | C[C@H](NC(=O)OCC#CI)C(=O)O [Compound 5, N-iodopropargyloxycarbonyl alanine] | > 500 | 250 | 125 | 125 | 32 | 125 | –
9 | O=C(CNC(=O)OCC#CI)OCC#CI [Compound 4, N-iodopropargyloxycarbonyl glycine iodopropargyl ester] | 125 | 32 | 125 | < 0.12 | < 0.12 | 32 | 12.5 (≈ 28 µM)
10 | COC(=O)CNC(=O)OCC#CI [Compound 2, N-iodopropargyloxycarbonyl glycine methyl ester] | 32 | 16 | 32 | < 4 | < 4 | 16 | –
